Activity calls are given as the source filed them. No cut-off for these calls is given here.
Experiments:
[1] = Induction of 4GY ionizing radiation (IR) induced cell cycle arrest in human HCT-116 cells assessed as accumulation of cells at G2/M phase at 10 uM measured after 24 hrs by Propidium iodide (PI) staining based assay (reference value: 20.51%); assay type: functional
HCT-116 [2] = assay: Induction of cell cycle arrest in human HCT-116 cells assessed as accumulation of cells at G2/M phase at 5 uM measured after 24 hrs by Propidium iodide (PI) staining based assay (reference value: 15.77%); assay type: functional
HCT-116 [3] = assay: Induction of PIG3 transcription level in human HCT-116 cells measured after 24 hrs; assay type: functional, cell-based
HCT-116 [4] = assay: Induction of cell cycle arrest in human HCT-116 cells assessed as accumulation of cells at S phase at 5 uM measured after 24 hrs by Propidium iodide (PI) staining based assay (reference value: 13.96%); assay type: functional
HCT-116 [5] = assay: Effect on Lig4 expression in wild type human HCT-116 cells assessed as change in mRNA level at 5 to 10 uM radiated with 4 GY ionizing radiation (IR) measured after 24 hrs by qRT-PCR analysis; assay type: functional, cell-based; conditions: dose 5-10 µM
HCT-116 [6] = assay: Induction of cell cycle arrest in human HCT-116 cells assessed as accumulation of cells at G0/G1 phase at 10 uM measured after 24 hrs by Propidium iodide (PI) staining based assay (reference value: 69.35%); assay type: functional
HCT-116 [7] = assay: Induction of ROS generation in human HCT-116 cells assessed as fold increase in intracellular ROS level at 10 uM under […] ionizing radiation (IR) measured after 20 mins by ELIASA analysis; assay type: functional
[8] = Toxicity in BALB/c mouse xenografted with human HCT-116 cells assessed as change in spleen weight at 1 to 10 mg/kg, ip every day for 14 days; assay type: organism-based; conditions: in vivo, 336 h, dose 1-10 mg/kg, time 14 day
SW480 = assay: Synergistic cytotoxicity against human SW480 cells assessed as combination index at 5 uM incubated for 48 hrs in presence of 2GY ionizing radiation (IR); assay type: functional
HCT-116 [9] = assay: Effect on Ku70/80 expression in wild type human HCT-116 cells assessed as change in mRNA level at 5 to 10 uM measured after 24 hrs by qRT-PCR analysis; assay type: functional, cell-based; conditions: dose 5-10 µM
[10] = AUClast in male Sprague-Dawley rat at 5 mg/kg, IG measured up to 24 hrs by LCMS-MS analysis; assay type: ADME, organism-based; conditions: in vivo, po
[11] = Induction of 4GY ionizing radiation (IR) induced cell cycle arrest in human HCT-116 cells assessed as accumulation of cells at S phase at 10 uM measured after 24 hrs by Propidium iodide (PI) staining based assay (reference value: 11.48%); assay type: functional
[12] = Tmax in male Sprague-Dawley rat at 1 mg/kg, iv measured up to 24 hrs by LCMS-MS analysis; assay type: ADME, organism-based; conditions: in vivo
[13] = Cmax in male Sprague-Dawley rat at 1 mg/kg, iv measured up to 24 hrs by LCMS-MS analysis; assay type: ADME, organism-based; conditions: in vivo
[14] = AUC infinity in male Sprague-Dawley rat at 5 mg/kg, IG measured up to 24 hrs by LCMS-MS analysis; assay type: ADME, organism-based; conditions: in vivo, po
RKO = assay: Synergistic cytotoxicity against human RKO cells assessed as combination index at 5 uM incubated for 48 hrs in presence of 2GY ionizing radiation (IR); assay type: functional
HCT-116 [15] = assay: Induction of ROS generation in human HCT-116 cells assessed as fold increase in intracellular ROS level at 5 uM under 4GY ionizing radiation (IR) measured after 20 mins by ELIASA analysis; assay type: functional
HCT-116 [16] = assay: Induction of 4GY ionizing radiation (IR) induced apoptosis in human HCT-116 cells assessed as viable cells at 5 uM measured after 24 hrs by FITC Annexin V/PI apoptosis detection assay (reference value: 66.88%); assay type: functional; conditions: read-out: Activity
[17] = MRT infinity in male Sprague-Dawley rat at 5 mg/kg, IG measured up to 24 hrs by LCMS-MS analysis; assay type: ADME, organism-based; conditions: in vivo, po
HCT-116 [18] = assay: Induction of apoptosis in human HCT-116 cells assessed as induction of 4GY ionizing radiation (IR) induced cleaved PARP at 5 uM measured after 24 hrs by Western blot analysis; assay type: functional, cell-based
HCT-116 [19] = assay: Induction of apoptosis in human HCT-116 cells assessed as early apoptotic cells at 5 uM measured after 24 hrs by FITC Annexin V/PI apoptosis detection assay (reference value: 0.26%); assay type: functional
HCT-116 [20] = assay: Cytotoxicity against human HCT116 cells assessed as cell killing at 0.5 uM relative to control; assay type: functional
[21] = Suppression of ionizing radiation (IR) induced DNA damage in human SgTDP1-HCT-116 cells (TDP1 knockout) assessed as NHEJ repair activity by measuring GFP positive cells at 1 uM measured after 24 hrs by flow cytometry (reference value: 100%); assay type: functional
HCT-116 [22] = assay: Synergistic cytotoxicity against human HCT116 cells assessed as combination index at 5 uM incubated for 48 hrs in presence of 2GY ionizing radiation (IR); assay type: functional
HCT-116 [23] = assay: Induction of gamma-H2AX level in human HCT-116 cells at 5 uM measured after 3 hrs by Western blot analysis; assay type: functional, cell-based
HCT-116 [24] = assay: Induction of 4GY ionizing radiation (IR) induced apoptosis in human HCT-116 cells measured after 24 hrs by TUNEL staining based analysis; assay type: functional, cell-based; conditions: dose 5-10 µM
[25] = Toxicity in BALB/c mouse xenografted with human HCT-116 cells assessed as change in body weight at 1 mg/kg, ip every day for 14 days; assay type: organism-based; conditions: in vivo, 336 h, time 14 day
HCT-116 [26] = assay: Induction of apoptosis in human HCT-116 cells assessed as early apoptotic cells at 10 uM measured after 24 hrs by FITC Annexin V/PI apoptosis detection assay (reference value: 0.26%); assay type: functional
[27] = tested on: Tyrosyl-DNA phosphodiesterase 1/Deoxyribonucleic acid; assay: Stabilization of TDP1/DNA complex in human HCT-116 cells at 100 uM by Cellular Thermal Shift Assay (CETSA); assay type: cell-based
[28] = Toxicity in BALB/c mouse xenografted with human HCT-116 cells assessed as change in liver weight at 1 to 10 mg/kg, ip every day for 14 days; assay type: organism-based; conditions: in vivo, 336 h, dose 1-10 mg/kg, time 14 day
HCT-116 [29] = assay: Anti-tumor activity against human HCT-116 cells xenografted in BALB/c mouse assessed as tumor growth inhibition at 10 mg/kg, ip every day for 14 days; assay type: functional, organism-based; conditions: time 14.0 day
[30] = Half life in male Sprague-Dawley rat at 5 mg/kg, IG measured up to 24 hrs by LCMS-MS analysis; assay type: ADME, organism-based; conditions: in vivo, po
HCT-116 [31] = assay: Effect on Ku70/80 expression in wild type human HCT-116 cells assessed as change in mRNA level at 5 to 10 uM radiated with 4 GY ionizing radiation (IR) measured after 24 hrs by qRT-PCR analysis; assay type: functional, cell-based; conditions: dose 5-10 µM
[32] = Toxicity in BALB/c mouse xenografted with human HCT-116 cells assessed as change in lung weight at 1 to 10 mg/kg, ip every day for 14 days radiated for every 2 days once; assay type: organism-based; conditions: in vivo, 336 h, dose 1-10 mg/kg, time 14 day
HCT-116 [33] = assay: Induction of apoptosis in human HCT-116 cells assessed as late apoptotic cells at 10 uM measured after 24 hrs by FITC Annexin V/PI apoptosis detection assay (reference value: 0%); assay type: functional

**Q.** For `COc1cc2c(=O)n(CCN(C)C)c3c4cc5c(cc4ccc3c2cc1OCCN1CCOCC1)OCO5`, which Activity [1] is on record?
**A.** 68.1%

**Q.** What about the Activity (HCT-116 [2]) of the same molecule?
**A.** 18.4%

**Q.** What about the Activity (HCT-116 [3]) of the same molecule?
**A.** Dose-dependent-effect

**Q.** And the Activity (HCT-116 [4])?
**A.** 10.9%

**Q.** What about the Activity (HCT-116 [5]) of the same molecule?
**A.** inactive

**Q.** And the Activity (HCT-116 [6])?
**A.** 63.63%

**Q.** And the “fold change (FC)” value (HCT-116 [7])?
**A.** 2.1

**Q.** And the Activity [8]?
**A.** Non-toxic

**Q.** And the CI (SW480)?
**A.** <0.3

**Q.** What about the Activity (HCT-116 [9]) of the same molecule?
**A.** inactive

**Q.** And the AUC(0-t) at 24 h [10]?
**A.** 779 ng·h/mL

**Q.** What about the Activity [11] of the same molecule?
**A.** 12.88%

**Q.** And the Tmax [12]?
**A.** 4.98 min

**Q.** And the Cmax [13]?
**A.** 221 ng/mL

**Q.** And the AUC(0-inf) [14]?
**A.** 735 ng·h/mL

**Q.** And the CI (RKO)?
**A.** <0.3

**Q.** What about the “fold change (FC)” value (HCT-116 [15]) of the same molecule?
**A.** 1.7

**Q.** And the viability at 5 µM (HCT-116 [16])?
**A.** 61.3%

**Q.** What about the MRT inf [17] of the same molecule?
**A.** 7.06 h

**Q.** What about the Activity (HCT-116 [18]) of the same molecule?
**A.** Active

**Q.** And the Activity (HCT-116 [19])?
**A.** 14.89%

**Q.** What about the Activity (HCT-116 [20]) of the same molecule?
**A.** 11%

**Q.** And the Activity [21]?
**A.** 7%

**Q.** What about the CI (HCT-116 [22]) of the same molecule?
**A.** <0.3

**Q.** What about the Activity (HCT-116 [23]) of the same molecule?
**A.** Active

**Q.** What about the Activity (HCT-116 [24]) of the same molecule?
**A.** Dose-dependent-effect

**Q.** What about the Activity [25] of the same molecule?
**A.** Non-toxic

**Q.** And the Activity (HCT-116 [26])?
**A.** 13.24%

**Q.** What about the Activity [27] of the same molecule?
**A.** Active; Coincubation With Ionizing Radiation Showed Greater Complex Formation

**Q.** And the Activity [28]?
**A.** Non-toxic

**Q.** And the TGI (HCT-116 [29])?
**A.** inactive

**Q.** And the half-life [30]?
**A.** 278 min

**Q.** And the Activity (HCT-116 [31])?
**A.** inactive

**Q.** And the Activity [32]?
**A.** Non-toxic

**Q.** And the Activity (HCT-116 [33])?
**A.** 13.67%

— ChEMBL document CHEMBL6134907, “Synthesis of 5,9- and 5,8-Diaminoalkoxy Substituted Benzophenanthridinone Analogues as Tyrosyl-DNA Phosphodiesterase 1 Inhibitors and Their Radiosensitizing Activity” (J Med Chem, 2025)
